According to US10105357B2, “Indication of antibiotic drugs for preparation of cancer inhibition pharmaceutical composition” (LAUNX BIOMEDICAL CO., LTD., priority 2014, dated 2018):
Like-named read-outs stand apart in the source and are kept apart here.

Assays:
[1] = test system: AGS (Gastric Adenocarcinoma); test: Cell viability analysis, gastric cancer AGS; format: cell-based, human; conditions: Homo sapiens, 72 h
[2] = test system: 786-O (Renal adenocarcinoma); test: Cell viability analysis, renal cancer 786-O; format: cell-based, human; conditions: Homo sapiens, 786-0, 72 h, read-out: The results of antibiotic drug inhibiting cancer cell lines (cell viability analysis), 786-O
[3] = test system: HI650 (Lung Adenocarcinoma); test: Cell viability analysis, lung cancer HI650; format: cell-based, human; conditions: Homo sapiens, NCI-H1650, 72 h
[4] = test system: BCC (basal cell carcinoma); test: Cell viability analysis, skin cancer BCC; format: cell-based, human; conditions: Homo sapiens, 72 h, read-out: The results of antibiotic drug inhibiting cancer cell lines (cell viability analysis), BCC
TOV-21G = test: Cell viability analysis, ovarian cancer TOV-21G; format: cell-based, human; conditions: Homo sapiens, TOV21G, 72 h, read-out: The results of antibiotic drug inhibiting cancer cell lines (cell viability analysis), TOV-21G
[5] = test system: HL-60 (Acute Promyelocytic Leukemia); test: Cell viability analysis, leukemia HL-60; format: cell-based, human; conditions: Homo sapiens, HL-60, 72 h, read-out: cell viability (survival rate), HL-60, drug 10 μM, 72 hours, WST-1, OD450 nm
[6] = test system: HepG2 (Hepatocellular Carcinoma); test: Cell viability analysis, hepatic cancer HepG2; format: cell-based, human; conditions: Homo sapiens, HepG2, 72 h
[7] = test system: MKN-45 (Gastric Adenocarcinoma); test: Cell viability analysis, gastric cancer MKN-45; format: cell-based, human; conditions: Homo sapiens, MKN-45, 72 h
[8] = test system: MDA-MB-231 (Mammary Gland, Adenocarcinoma); test: Cell viability analysis, breast cancer MDA-MB-231; format: cell-based, human; conditions: Homo sapiens, MDA-MB-231, 72 h, read-out: The results of antibiotic drug inhibiting cancer cell lines (cell viability analysis), MDA-MB231
[9] = test system: Hep3B (hepatocellular carcinoma); test: Cell viability analysis, hepatic cancer Hep3B; format: cell-based, human; conditions: Homo sapiens, Hep3B, 72 h, read-out: The results of antibiotic drug inhibiting cancer cell lines (cell viability analysis), Hep3B
[10] = test system: MCF7 (Mammary Gland, Adenocarcinoma); test: Cell viability analysis, breast cancer MCF7; format: cell-based, human; conditions: Homo sapiens, MCF7, 72 h
[11] = test system: SAS (Tongue squamous cell carcinoma); test: Cell viability analysis, tongue cancer SAS; format: cell-based, human; conditions: Homo sapiens, 72 h, read-out: The results of antibiotic drug inhibiting cancer cell lines (cell viability analysis), SAS
[12] = test system: A549 (Lung Adenocarcinoma); test: Cell viability analysis, lung cancer A549; format: cell-based, human; conditions: Homo sapiens, A549, 72 h
U-2OS = test: Cell viability analysis, osteosarcoma U-2OS; format: cell-based, human; conditions: Homo sapiens, U2OS, 72 h, read-out: The results of antibiotic drug inhibiting cancer cell lines (cell viability analysis), U2OS
NIH: OVCAR-3 = test: Cell viability analysis, ovarian cancer NIH: OVCAR-3; format: cell-based, human; conditions: Homo sapiens, OVCAR-3, 72 h, read-out: The results of antibiotic drug inhibiting cancer cell lines (cell viability analysis), NIH-OVCAR-3
[13] = test system: C-33A (Cervical carcinoma); test: Cell viability analysis, cervical cancer C-33A; format: cell-based, human; conditions: Homo sapiens, C-33-A, 72 h, read-out: The results of antibiotic drug inhibiting cancer cell lines (cell viability analysis), C-33A
[14] = test system: HeLa (Cervix Adenocarcinoma); test: Cell viability analysis, cervical cancer HeLa; format: cell-based, human; conditions: Homo sapiens, HeLa, 72 h
[15] = test system: A375 (Amelanotic Melanoma); test: Cell viability analysis, skin cancer A375; format: cell-based, human; conditions: Homo sapiens, A-375, 72 h
[16] = test system: PC3 (p53−) (Prostate Adenocarcinoma); test: Cell viability analysis, prostate cancer PC3; format: cell-based, human; conditions: Homo sapiens, 72 h
T24 = test: Cell viability analysis, bladder cancer T24; format: cell-based, human; conditions: Homo sapiens, T-24, 72 h, read-out: The results of antibiotic drug inhibiting cancer cell lines (cell viability analysis), T24
AsPC-1 = test: Cell viability analysis, pancreatic cancer AsPC-1; format: cell-based, human; conditions: Homo sapiens, ASPC1, 72 h, read-out: The results of antibiotic drug inhibiting cancer cell lines (cell viability analysis), AsPC-1
BxPC-3 = test: Cell viability analysis, pancreatic cancer BxPC-3; format: cell-based, human; conditions: Homo sapiens, BXPC-3, 72 h, read-out: The results of antibiotic drug inhibiting cancer cell lines (cell viability analysis), BxPC-3
cancer cell lines = test: Cell viability analysis (WST-1) on cancer cell lines; format: cell-based, human; conditions: drug 10 μM, 72 hours, WST-1; Table 3
[17] = test system: HCT116 (p53+) (Colorectal Carcinoma)
[18] = test system: LoVo (Colorectal Adenocarcinoma); test: Cell viability analysis, colon cancer LoVo; format: cell-based, human; conditions: Homo sapiens, LoVo, 72 h

Compound: Clc1ccc(COC(Cn2ccnc2)c2ccc(Cl)cc2Cl)c(Cl)c1 (centres unmarked) [Miconazole nitrate]
- viability at 10 µM ([1]; read-out: The results of antibiotic drug inhibiting cancer cell lines (cell viability analysis), AGS, repeated experiment): 114%
- viability at 10 µM ([1]; read-out: cell viability (survival rate), AGS, drug 10 μM, 72 hours, WST-1, OD450 nm): 51.1%
- viability at 10 µM [2]: 75.2%
- viability at 10 µM ([3]; read-out: The results of antibiotic drug inhibiting cancer cell lines (cell viability analysis), H1650, H1650, repeated experiment): 83.1%
- viability at 10 µM ([3]; read-out: cell viability (survival rate), H1650, drug 10 μM, 72 hours, WST-1, OD450 nm): 68.8%
- viability at 10 µM [4]: 80.7%
- viability at 10 µM (TOV-21G): 80.6%
- viability at 10 µM [5]: 41.4%
- viability at 10 µM ([6]; read-out: The results of antibiotic drug inhibiting cancer cell lines (cell viability analysis), HepG2, HepG2, repeated experiment): 108%
- viability at 10 µM ([6]; read-out: cell viability (survival rate), HepG2, drug 10 μM, 72 hours, WST-1, OD450 nm): 104%
- viability at 10 µM ([7]; read-out: The results of antibiotic drug inhibiting cancer cell lines (cell viability analysis), MKN-45, MKN-45, repeated experiment): 99.8%
- viability at 10 µM ([7]; read-out: cell viability (survival rate), MKN-45, drug 10 μM, 72 hours, WST-1, OD450 nm): 45%
- viability at 10 µM [8]: 107%
- viability at 10 µM [9]: 126%
- viability at 10 µM ([10]; read-out: The results of antibiotic drug inhibiting cancer cell lines (cell viability analysis), MCF-7, MCF-7, repeated experiment): 95.6%
- viability at 10 µM ([10]; read-out: cell viability (survival rate), MCF7, drug 10 μM, 72 hours, WST-1, OD450 nm): 50.7%
- viability at 10 µM [11]: 69.6%
- viability at 10 µM ([12]; read-out: The results of antibiotic drug inhibiting cancer cell lines (cell viability analysis), A549, A549, repeated experiment): 97.3%
- viability at 10 µM ([12]; read-out: cell viability (survival rate), A549, drug 10 μM, 72 hours, WST-1, OD450 nm): 37.3%
- viability at 10 µM (U-2OS): 64.2%
- viability at 10 µM (NIH: OVCAR-3): 94.8%
- viability at 10 µM [13]: 117%
- viability at 10 µM ([14]; read-out: The results of antibiotic drug inhibiting cancer cell lines (cell viability analysis), HeLa, repeated experiment): 95.7%
- viability at 10 µM ([14]; read-out: cell viability (survival rate), HeLa, drug 10 μM, 72 hours, WST-1, OD450 nm): 57.6%
- viability at 10 µM ([15]; read-out: The results of antibiotic drug inhibiting cancer cell lines (cell viability analysis), A375, A375, repeated experiment): 100%
- viability at 10 µM ([15]; read-out: cell viability (survival rate), A375, drug 10 μM, 72 hours, WST-1, OD450 nm): 31.5%
- viability at 10 µM ([16]; read-out: The results of antibiotic drug inhibiting cancer cell lines (cell viability analysis), PC-3, PC-3, repeated experiment): 116%
- viability at 10 µM ([16]; read-out: cell viability (survival rate), PC3, drug 10 μM, 72 hours, WST-1, OD450 nm): 30.4%
- viability at 10 µM (T24): 77.7%
- viability at 10 µM (AsPC-1): 75.5%
- viability at 10 µM (BxPC-3): 65.3%
- inhibition effect on different cancer cell lines (cancer cell lines): significant inhibition effect
- viability [17]: 122%
- viability at 10 µM ([18]; read-out: The results of antibiotic drug inhibiting cancer cell lines (cell viability analysis), LoVo, repeated experiment): 81.3%
- viability at 10 µM ([18]; read-out: cell viability (survival rate), LoVo, drug 10 μM, 72 hours, WST-1, OD450 nm): 62.1%
